Test systems include SNB-75 CNS; BT-549 breast; UACC-62 melanoma; SF-539 CNS; PC-3 prostate; OVCAR-4 ovarian; OVCAR-3 ovarian; MDA-N; RXF 393 renal; CAKI-1 renal; DU-145 prostate; LOX IMVI melanoma; A498 renal; OVCAR-5 ovarian; EKVX NSCLC; HT29 colon; OVCAR-8 ovarian; XF 498 CNS; DMS 114 small cell lung; LXFL 529 NSCLC.
Assay in all cases: NCI-60 cell line screen, 48 h

Experimental findings from PubChem BioAssay (NCI) are described below.

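96-well plates; 48 h exposure; 5 concentrations. Endpoints by linear interpolation between flanking doses. Not reached: highest tested concentration assigned. TGI: concentration producing complete growth inhibition.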

On to `CCN(CC)CCNC(=O)c1cc2cc(NC(=O)c3cc4cc([N+](=O)[O-])ccc4[nH]3)ccc2[nH]1`, for which the TGI with SNB-75 CNS was over 100 µM; in the assay on BT-549 breast it was over 100 µM; with UACC-62 melanoma, 87.5 µM; in the assay with SF-539 CNS, over 49.7 µM; in the assay with PC-3 prostate, over 100 µM; in the assay with OVCAR-4 ovarian, over 100 µM. In addition, the TGI was over 57 µM in the assay with OVCAR-3 ovarian; over 100 µM in the assay with MDA-N; over 100 µM in the assay on RXF 393 renal; over 100 µM with CAKI-1 renal; 31.8 µM with DU-145 prostate; over 100 µM in the assay with LOX IMVI melanoma. Further, the TGI with A498 renal is over 82.7 µM; with OVCAR-5 ovarian, over 100 µM; with EKVX NSCLC, over 100 µM; in the assay with HT29 colon, over 100 µM; with OVCAR-8 ovarian it was over 100 µM.

`Nc1nc(SCCC/C=C/I)nc2c1ncn2C1OC(COP(=O)(O)O)C(O)C1O` (stereo not given): the TGI with XF 498 CNS, in the assay with SNB-75 CNS, with UACC-62 melanoma, in the assay on SF-539 CNS, in the assay on OVCAR-4 ovarian and in the assay with OVCAR-3 ovarian was over 100 µM each time. Moreover, the TGI in the assay with RXF 393 renal, with LOX IMVI melanoma, in the assay with A498 renal, in the assay with OVCAR-5 ovarian, in the assay on DMS 114 small cell lung and with EKVX NSCLC was over 100 µM throughout. The TGI in the assay on LXFL 529 NSCLC, in the assay on HT29 colon and in the assay with OVCAR-8 ovarian was over 100 µM in each case.

As for `CCCCCCCC/C=C\CCCCCCCCCCCC(=O)O`, the TGI in the assay with XF 498 CNS is 2.82 µM; in the assay on SNB-75 CNS, 113 µM; in the assay on UACC-62 melanoma it was 102 µM; in the assay with SF-539 CNS, 40.4 µM; with OVCAR-4 ovarian it was over 115 µM; in the assay on OVCAR-3 ovarian, 36.5 µM. The TGI in the assay on RXF 393 renal was 18.4 µM; with CAKI-1 renal it was over 117 µM; with LOX IMVI melanoma it was 70.8 µM; in the assay with OVCAR-5 ovarian it was over 125 µM; in the assay on EKVX NSCLC, 92.8 µM; with HT29 colon, over 125 µM. Further, the TGI with OVCAR-8 ovarian was over 109 µM.

`CC1=C(Cl)C=CP(=O)(Oc2ccccc2)C1` (stereo not given): the TGI in the assay on XF 498 CNS, in the assay with UACC-62 melanoma, in the assay with OVCAR-4 ovarian, with OVCAR-3 ovarian, in the assay on CAKI-1 renal and in the assay with LOX IMVI melanoma was over 100 µM throughout. For the same molecule, the TGI is over 100 µM in the assay on OVCAR-5 ovarian; 90.9 µM with DMS 114 small cell lung; over 100 µM in the assay with EKVX NSCLC; 28.7 µM in the assay with LXFL 529 NSCLC; 60.6 µM in the assay on OVCAR-8 ovarian.

In the case of `N=c1nnc2ccc(Cl)cc2n1O`, the TGI was over 100 µM in the assay with SNB-75 CNS; over 100 µM in the assay on BT-549 breast; over 100 µM with UACC-62 melanoma; over 100 µM in the assay with PC-3 prostate; over 100 µM in the assay with MDA-N; 95.2 µM with RXF 393 renal. For the same molecule, the TGI with CAKI-1 renal, in the assay with DU-145 prostate, with LOX IMVI melanoma, in the assay with A498 renal, in the assay on OVCAR-5 ovarian and with EKVX NSCLC was over 100 µM in each case. Also, the TGI was over 100 µM with HT29 colon and 92.4 µM with OVCAR-8 ovarian.

Regarding `Cc1ccc(NC(=O)CC2Sc3ccccc3NC2=O)cc1C` (stereo not given), the TGI in the assay with XF 498 CNS, in the assay on SNB-75 CNS, in the assay on UACC-62 melanoma, with SF-539 CNS, in the assay with OVCAR-4 ovarian and in the assay with OVCAR-3 ovarian was over 100 µM throughout. The TGI in the assay with RXF 393 renal, in the assay with CAKI-1 renal, in the assay on LOX IMVI melanoma, in the assay with A498 renal, in the assay on OVCAR-5 ovarian and with DMS 114 small cell lung was over 100 µM in each case. The TGI with EKVX NSCLC, in the assay with LXFL 529 NSCLC, with HT29 colon and with OVCAR-8 ovarian was over 100 µM throughout.

Take `COc1ccc(/C=c2\sc3n(c2=O)CCN=3)cc1`: the TGI with SNB-75 CNS, with UACC-62 melanoma, with SF-539 CNS, in the assay with OVCAR-4 ovarian, with OVCAR-3 ovarian and with RXF 393 renal was over 100 µM in each case. The TGI with LOX IMVI melanoma, in the assay with OVCAR-5 ovarian, with EKVX NSCLC, in the assay with LXFL 529 NSCLC, in the assay on HT29 colon and in the assay with OVCAR-8 ovarian was over 100 µM each time.

Consider `Nc1c(S(=O)(=O)O)cc2cc(S(=O)(=O)O)ccc2c1N=Nc1ccc(-c2ccc(N=Nc3c(N)c(S(=O)(=O)O)cc4cc(S(=O)(=O)O)ccc34)c(S(=O)(=O)O)c2)cc1`, for which the TGI with XF 498 CNS is over 100 µM; in the assay on SNB-75 CNS, over 100 µM; with UACC-62 melanoma it was over 100 µM; with SF-539 CNS, over 100 µM; in the assay with OVCAR-4 ovarian, 74.7 µM; in the assay with OVCAR-3 ovarian it was over 100 µM. The TGI with RXF 393 renal, with LOX IMVI melanoma, in the assay with A498 renal, in the assay on OVCAR-5 ovarian, in the assay on DMS 114 small cell lung and with EKVX NSCLC was over 100 µM throughout. The TGI with HT29 colon and in the assay with OVCAR-8 ovarian was over 100 µM each time.

Turning to `N#C/C(=C1/Sc2c(nc[nH]c2=O)N1c1ccccc1)c1nc2ccccc2[nH]1`, the TGI in the assay with XF 498 CNS, in the assay on SNB-75 CNS, in the assay with UACC-62 melanoma, in the assay with SF-539 CNS, in the assay with OVCAR-4 ovarian and with OVCAR-3 ovarian was over 100 µM throughout. Moreover, the TGI with CAKI-1 renal, with A498 renal, with OVCAR-5 ovarian, with DMS 114 small cell lung, in the assay with EKVX NSCLC and in the assay on LXFL 529 NSCLC was over 100 µM throughout. The TGI with HT29 colon and in the assay on OVCAR-8 ovarian was over 100 µM throughout.

For the molecule `Oc1ccc(-c2nc3ccc(Br)cc3s2)cc1`, the TGI is 44.7 µM with BT-549 breast; 27.4 µM in the assay on UACC-62 melanoma; 35.8 µM with SF-539 CNS; 54.8 µM in the assay on PC-3 prostate; 31.8 µM in the assay on OVCAR-3 ovarian; over 100 µM with MDA-N. Besides, the TGI is over 100 µM in the assay on RXF 393 renal; 33.7 µM in the assay on CAKI-1 renal; 36.7 µM with DU-145 prostate; 30.1 µM in the assay on LOX IMVI melanoma; 63.8 µM in the assay on OVCAR-5 ovarian; 28.6 µM in the assay with EKVX NSCLC. Moreover, the TGI in the assay on HT29 colon amounted to 50.5 µM; in the assay on OVCAR-8 ovarian it was 49.3 µM.
